Activity data for one molecule are collected here from ChEMBL document CHEMBL4000165, “Chemosensitizing effect of Paris Saponin I on Camptothecin and 10-hydroxycamptothecin in lung cancer cells via p38 MAPK, ERK, and Akt signaling pathways” (Eur J Med Chem, 2017).

Molecules are shown by their SMILES. Active and inactive are the calls of the source. The calls are words filed in the database; no cut-off is given here.

This test concerns the target Mitogen-activated protein kinase; ERK1/ERK2 (Homo sapiens) (UniProt P27361+P28482). Nature of the test: Effect on ERK1/2 phosphorylation in human NCI-H446 cells at 0.6 uM in presence of HCPT by Western blot method. The format is cell-based.

Chain of Mitogen-activated protein kinase; ERK1/ERK2 (Homo sapiens) (P27361 whole entry, looked up): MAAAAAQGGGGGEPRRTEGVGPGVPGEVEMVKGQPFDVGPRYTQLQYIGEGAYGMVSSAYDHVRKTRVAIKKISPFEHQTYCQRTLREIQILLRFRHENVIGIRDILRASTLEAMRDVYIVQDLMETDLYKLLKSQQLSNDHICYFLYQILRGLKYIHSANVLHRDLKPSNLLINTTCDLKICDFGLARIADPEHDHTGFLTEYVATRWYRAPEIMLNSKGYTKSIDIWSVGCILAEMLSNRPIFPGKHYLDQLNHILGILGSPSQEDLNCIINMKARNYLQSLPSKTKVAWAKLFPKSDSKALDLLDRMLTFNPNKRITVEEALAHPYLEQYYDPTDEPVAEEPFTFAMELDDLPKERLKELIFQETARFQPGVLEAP
Chain of Mitogen-activated protein kinase; ERK1/ERK2 (Homo sapiens) (P28482 whole entry, looked up): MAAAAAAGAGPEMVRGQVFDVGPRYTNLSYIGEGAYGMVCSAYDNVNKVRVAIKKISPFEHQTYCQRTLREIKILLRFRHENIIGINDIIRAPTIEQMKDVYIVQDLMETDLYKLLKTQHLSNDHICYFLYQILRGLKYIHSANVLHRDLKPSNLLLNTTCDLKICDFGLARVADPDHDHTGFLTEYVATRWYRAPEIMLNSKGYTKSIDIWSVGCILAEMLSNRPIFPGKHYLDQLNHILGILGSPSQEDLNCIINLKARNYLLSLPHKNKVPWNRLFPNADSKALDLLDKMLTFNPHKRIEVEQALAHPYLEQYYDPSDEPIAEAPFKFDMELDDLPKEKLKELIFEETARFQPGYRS

As to `C[C@@H]1CC[C@@]2(OC1)O[C@H]1C[C@H]3[C@@H]4CC=C5C[C@@H](O[C@@H]6O[C@H](CO)[C@@H](O[C@@H]7O[C@@H](CO)[C@H](O)[C@H]7O)[C@H](O)[C@H]6O[C@@H]6O[C@@H](C)[C@H](O)[C@@H](O)[C@H]6O)CC[C@]5(C)[C@H]4CC[C@]3(C)[C@H]1[C@@H]2C`, the result was Active.
